Read-outs that look alike come from different tables or passages of the source.

The target in one assay is Hamster Sc237 PrP^Sc (Mesocricetus auratus, UniProt P04273). The format is biochemical.
In assay [1] the target is T1, PrP^Sc (Mesocricetus auratus, UniProt P04273). The format is biochemical, hamster. The following applies: for IC50: read-out: IC50 of inhibition of PrP^Sc amplification; for effect on inhibition by CuCl2, added prior to CuCl2: 4 mM EDTA or 50 mM imidazole prior to 1 μM CuCl2; for effect on inhibition by CuCl2, added shortly after CuCl2: after 1 μM CuCl2; for effect of chelating compounds on PrP^Sc amplification: no metal added.
T1 sequence (P04273 23-231 limits assumed): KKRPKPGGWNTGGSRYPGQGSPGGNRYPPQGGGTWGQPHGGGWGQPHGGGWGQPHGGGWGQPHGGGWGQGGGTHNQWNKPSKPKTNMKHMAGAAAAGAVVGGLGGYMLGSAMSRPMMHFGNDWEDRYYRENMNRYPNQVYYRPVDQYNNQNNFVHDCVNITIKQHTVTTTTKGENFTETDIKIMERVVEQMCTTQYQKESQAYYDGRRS

In the next assay the target is PrP^C (Mesocricetus auratus, UniProt P04273).
Sequence of PrP^C (P04273 23-231 limits assumed): as above
In a further assay the target is PrP^C/PrP^Sc binding (Mesocricetus auratus, UniProt P04273).
Sequence of PrP^C/PrP^Sc binding (P04273 23-231 limits assumed): as above
For assay [2], the target named is T1, PrP^Sc. It counts as biochemical, hamster.
Assay [3] addresses Syrian hamster Sc237 PrP27-30 / immunopurified hamster PrP^C (Mesocricetus auratus, UniProt P04273). It counts as biochemical.
Assay [4] addresses T1, PrP^Sc. The format is biochemical, hamster. This is another data set of the same source.
Assay [5] concerns the target T1, PrP^Sc.

Sequence of Hamster Sc237 PrP^Sc (P04273 23-231 limits assumed): as above
Sequence of Syrian hamster Sc237 PrP27-30 / immunopurified hamster PrP^C (P04273 23-231 limits assumed): as above

Take `Nc1ccn([C@@H]2O[C@H](CO)[C@@H](OP(=O)(O)O)[C@H]2O)c(=O)n1` [3′-cytidine monophosphate]: the “inhibition of PrP^Sc amplification by RNase end-product nucleotides” value against Hamster Sc237 PrP^Sc (concentrations up to 1 mM) was “Neither of these nucleotides inhibited PrP^Sc amplification”.

Consider `[Cl][Cu][Cl]` [CuCl2], for which, on PrP^Sc [1], the IC50 (usually the concentration at which inhibition is half-maximal) is approximately 1 µM. Moreover, on PrP^C, the “quantity or protease-resistance of input PrP^C or PrP^Sc molecules by themselves” value was “did not affect the quantity or protease-resistance”. In addition, the “PrP^C/PrP^Sc binding, ratio of PrP^C to PrP27-30 in the pellet” value at PrP^C/PrP^Sc binding is given as 0.46.

`O=C(O)CN(CCN(CC(=O)O)CC(=O)O)CC(=O)O` [EDTA]: at PrP^Sc [1], the “effect on inhibition by CuCl2, added prior to CuCl2” value is given as “prevented inhibition of PrP^Sc amplification”; the “effect on inhibition by CuCl2, added shortly after CuCl2” value is “failed to rescue PrP^Sc amplification”; the “effect of chelating compounds on PrP^Sc amplification” value is listed as “not influenced”.

Consider `[Cl][Mn][Cl]` [MnCl2], for which, on PrP^Sc [1], the “effect of divalent metal compound on PrP^Sc amplification” value is “neither MnCl2 nor CoCl2 affected PrP^Sc amplification” and the “effect of pre-addition on CuCl2-mediated inhibition of PrP^Sc amplification” value is given as “did not influence the potency of CuCl2-mediated inhibition”.

For the compound `[Cl-].[Cl-].[Zn+2]` [ZnCl2], the IC50 on PrP^Sc [1] was approximately 10 µM.

As to `Nc1nc2c(ncn2[C@@H]2O[C@H](CO)[C@H]3OP(=O)(O)O[C@H]32)c(=O)[nH]1` [cyclic 2′,3′-GMP, 2′,3′-cyclic guanosine monophosphate], the “inhibition of PrP^Sc amplification by RNase end-product nucleotides” value on Hamster Sc237 PrP^Sc was “Neither of these nucleotides inhibited PrP^Sc amplification”.

Turning to `c1c[nH]cn1` [imidazole], the “effect on PrP^Sc amplification of preparation “X”” value is on record as “restored PrP^Sc amplification” on PrP^Sc [2] (5 mM), “restored the ability of this preparation to serve as a substrate” on PrP^Sc [2] (50 mM) and “inhibited PrP^Sc amplification” on PrP^Sc [2] (250 mM). In addition, at PrP^Sc [1], the “effect on inhibition by CuCl2, added prior to CuCl2” value was “prevented inhibition of PrP^Sc amplification”. In addition, the “effect on inhibition by CuCl2, added shortly after CuCl2” value at PrP^Sc [1] is listed as “failed to rescue PrP^Sc amplification”.

Take `Cc1ccc2ccc3ccc(C)nc3c2n1` [neocuproine]: at PrP^Sc [1], the “effect of chelating compounds on PrP^Sc amplification” value is recorded as “not influenced”.

DNase: the “effect of added enzyme on PrP^Sc amplification” value (“effect of added enzyme” below) on Hamster Sc237 PrP^Sc is “did not decrease PrP^Sc amplification”.

As for “Sodium pentosan polysulfate [pentosan sulfate]”, the “stimulation of PrP^Sc amplification” value in assay [3] was “stimulated PrP^Sc amplification only moderately”.

For the compound apyrase, on Hamster Sc237 PrP^Sc, the “effect of added enzyme” value was “no effect”.

Consider glycogen, for which, in assay [3], the “stimulation of PrP^Sc amplification using purified substrate” value (from here on “stimulation … using purified substrate”) was “did not stimulate the formation of PrP^Sc”.

As to heparan sulfate, in assay [3], the “stimulation of PrP^Sc amplification in the presence of copper” value is recorded as “No apparent stimulation” and the “stimulation … using purified substrate” value is “no effect”.

As to heparan sulfate proteoglycan, the “reconstitution of PrP^Sc amplification” value at PrP^Sc [4] is “failed to reconstitute PrP^Sc amplification”. Moreover, the “stimulation of PrP^Sc amplification” value in assay [3] was “stimulated PrP^Sc amplification only moderately”.

Consider heparinase III, for which the “effect of added enzyme” value at Hamster Sc237 PrP^Sc is “no effect”.

As to poly(C), in assay [3], the “stimulation … using purified substrate” value is “failed to stimulate PrP^Sc amplification at all concentrations tested”.

Regarding poly(U), the “stimulation … using purified substrate” value in assay [3] is listed as “potently stimulated PrP^Sc amplification”.

For polyadenylic acid [poly(A)], the “reconstitution of PrP^Sc amplification” value at PrP^Sc [4] was “failed to reconstitute PrP^Sc amplification”. Also, in assay [3], the “concentration at which PrP^Sc amplification was stimulated” value worked out at 1 µg/mL and the “threshold size required for stimulation of PrP^Sc amplification” value was approximately 300 bases. In addition, at PrP^Sc [5], the “propagation of PrP^Sc conformation in serial PMCA” value is “stimulated the propagation process”.

For polyglutamic acid [polyglutamate], the “reconstitution of PrP^Sc amplification” value at PrP^Sc [4] (benzonase-pretreated normal brain homogenate) is listed as “failed to reconstitute PrP^Sc amplification”. The “level of stimulation compared with control stimulation by total hamster RNA” value in assay [3] (purified substrate) is reported as “less than the level of control stimulation”.

The values above are taken from US7407760B2 (priority 2003, dated 2008).
